For one data set, the target named is CYP3A4 (Homo sapiens, UniProt P08684). Briefly: Midazolam interaction study. The class given is in vivo. To be noted: for AUC ratio day 1/day−1, point estimate geometric LS means (geometric 90% CI) / AUC ratio day 10/day−1, point estimate geometric LS means (geometric 90% CI): ANOVA.
The next data set can be described thus: Safety and tolerability. The class given is in vivo, human. The conditions noted are these: midazolam alone.
[1] abbreviates: BAY 2433334 25 mg OD + Midazolam.
The mark [2] stands for this setting: BAY 2433334 75 mg OD + Midazolam.
[3] abbreviates: day 1, coadministration of BAY 2433334 25 mg.
Where [4] appears, read: day 1, coadministration of BAY 2433334 75 mg.
Where [5] appears, read: day 10, BAY 2433334 25 mg once daily.
The mark [6] stands for this setting: BAY 2433334 25 mg treatment sequence.
Where [7] appears, read: BAY 2433334 75 mg treatment sequence.

A word on the half-life: it is the time in which the quantity being followed falls by half.

Sequence of CYP3A4 (P08684 whole entry): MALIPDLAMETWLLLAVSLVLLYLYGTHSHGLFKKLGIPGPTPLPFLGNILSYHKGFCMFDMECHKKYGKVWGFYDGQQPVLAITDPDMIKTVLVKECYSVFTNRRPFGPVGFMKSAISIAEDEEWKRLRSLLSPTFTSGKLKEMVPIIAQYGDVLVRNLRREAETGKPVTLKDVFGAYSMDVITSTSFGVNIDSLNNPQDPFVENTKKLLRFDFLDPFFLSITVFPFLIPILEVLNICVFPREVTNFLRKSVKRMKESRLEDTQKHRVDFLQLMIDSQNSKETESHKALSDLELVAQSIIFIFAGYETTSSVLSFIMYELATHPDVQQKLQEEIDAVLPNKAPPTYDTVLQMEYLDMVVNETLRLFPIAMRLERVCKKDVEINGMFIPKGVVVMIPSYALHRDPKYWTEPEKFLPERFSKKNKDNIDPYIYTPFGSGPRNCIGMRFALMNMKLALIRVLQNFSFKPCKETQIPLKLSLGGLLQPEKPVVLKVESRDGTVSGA

As for `Cc1ncc2n1-c1ccc(Cl)cc1C(c1ccccc1F)=NC2` [Midazolam, midazolam], the “AUC ratio day 1/day−1, point estimate geometric LS means (geometric 90% CI)” value on CYP3A4 (setting [1]) is reported as 1.0415 (0.9659–1.1230); on CYP3A4 (setting [2]), 1.0451 (0.9785–1.1164). Moreover, the “AUC ratio day 10/day−1, point estimate geometric LS means (geometric 90% CI)” value on CYP3A4 (setting [1]) is 1.0630 (0.9859–1.1461); at CYP3A4 (setting [2]) it was 1.1736 (1.0963–1.2564); at CYP3A4 (BAY 2433334 75 mg OD + Midazolam, listed as midazolam), 1.1736 [1.0963–1.2564]. In addition, the “increase in the AUC” value was determined as 4.2% on CYP3A4 (setting [3]); 4.5% on CYP3A4 (setting [4]); 6.3% at CYP3A4 (setting [5]); 17% at CYP3A4 (day 10, pre‐ and coadministration of BAY 2433334 75 mg). The half-life on CYP3A4 (human, plasma, oral, 7.5 mg, t1/2, Day −1, midazolam 7.5 mg alone, BAY 2433334 75 mg OD group, median (range), geometric mean not calculated) was 287 min. The tmax at CYP3A4 (human, plasma, oral, 7.5 mg, tmax, Day −1, midazolam 7.5 mg alone, BAY 2433334 25 mg OD group, median (range)) was 35 min; on CYP3A4 (human, plasma, oral, 7.5 mg, tmax, Day −1, midazolam 7.5 mg alone, BAY 2433334 75 mg OD group, median (range)), 45 min; at CYP3A4 (human, plasma, oral, tmax, Day 1, midazolam 7.5 mg with BAY 2433334 25 mg OD, median (range)), 44.5 min; on CYP3A4 (human, plasma, oral, tmax, Day 1, midazolam 7.5 mg with BAY 2433334 75 mg OD, median (range)), 45 min; at CYP3A4 (human, plasma, oral, tmax, Day 10, midazolam 7.5 mg with BAY 2433334 25 mg OD, median (range)), 45 min; on CYP3A4 (human, plasma, oral, tmax, Day 10, midazolam 7.5 mg with BAY 2433334 75 mg OD, median (range)), 45 min. Moreover, the “Adverse event(s) of special interest” value is recorded as 0 Number (%) in the data set “Safety and tolerability” (setting [6]); 0 Number (%) in the data set “Safety and tolerability” (setting [7]). Moreover, the “Study drug‐related adverse event(s)” value in the data set “Safety and tolerability” (setting [6]) is listed as 0 Number (%); in “Safety and tolerability” (setting [7]) it was 0 Number (%). Besides, the “Study procedure‐related adverse event(s)” value in “Safety and tolerability” (setting [6]) is recorded as 3 (12.5%) Number (%); in the data set “Safety and tolerability” (setting [7]) it was 1 (4.2%) Number (%).
Take `OCc1ncc2n1-c1ccc(Cl)cc1C(c1ccccc1F)=NC2` [α‐Hydroxymidazolam, α‐hydroxymidazolam]: the “AUC ratio day 1/day−1, point estimate geometric LS means (geometric 90% CI)” value on CYP3A4 (setting [1]) is 1.0650 (0.9661–1.1741); on CYP3A4 (setting [2]), 0.9856 (0.9206–1.0551). Besides, the “AUC ratio day 10/day−1, point estimate geometric LS means (geometric 90% CI)” value on CYP3A4 (setting [1]) was 1.0560 (0.9595–1.1622); at CYP3A4 (setting [2]), 0.9864 (0.9169–1.0612); at CYP3A4 (BAY 2433334 75 mg OD + Midazolam, listed as α‐hydroxymidazolam), 0.9864 [0.9169–1.0612]. In addition, the tmax is listed as 0.742 (0.500–4.00) h at CYP3A4 (Day 1, midazolam 7.5 mg with BAY 2433334 25 mg OD, median (range)); 0.750 (0.483–4.00) h on CYP3A4 (Day 1, midazolam 7.5 mg with BAY 2433334 75 mg OD, median (range)); 0.750 (0.483–4.00) h at CYP3A4 (Day 10, midazolam 7.5 mg with BAY 2433334 25 mg OD, median (range)); 0.750 (0.483–2.00) h at CYP3A4 (Day 10, midazolam 7.5 mg with BAY 2433334 75 mg OD, median (range)); 0.708 (0.483–4.00) h at CYP3A4 (Day −1, midazolam 7.5 mg alone, BAY 2433334 25 mg OD group, median (range)); 0.750 (0.500–3.00) h on CYP3A4 (Day −1, midazolam 7.5 mg alone, BAY 2433334 75 mg OD group, median (range)). Besides, the “increase in the AUC” value was 4.4% on CYP3A4 (setting [3]) and 6.0% at CYP3A4 (setting [5]). On CYP3A4 (setting [4]), the “decrease in the AUC” value came to 1.5%. For the same compound, the “time to maximum plasma concentrations, range across treatments” value on CYP3A4 (with and without BAY 2433334) lay in the range of 0.583 to 0.750 h.

These data come from PMC9311154 (British Journal of Clinical Pharmacology, 2022).
